Measurements from patent US20240391931A1 (Bristol-Myers Squibb Company, priority 2021, published 2024).

Tests used:
HER2 WT = target: T1, HER2 WT (Homo sapiens, UniProt P04626); experiment: Enzymatic assay HER2 WT (method a); assay type: biochemical; settings: [HER2 WT]=12.5 nM, [ATP]=25 μM, [Peptide 22]=1 μM
T1 construct: purchased ProQinase, Freiburg, Germany ERBB2 0108-0000-1
Outline: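 Microfluidic mobility-shift kinase assay with Peptide 22 (1 μM) in HEPES pH 7.5, MnCl2, MgCl2, Tween 20, TCEP. HER2 WT 12.5 nM and HER2 YVMA 5 nM each used 25 μM ATP; EGFR WT 2 nM used 1 mM ATP. IC50 came from initial-velocity (0–3600 s) percent inhibition, fitted to a variable-slope model.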

[1] = target: T2, HER2 wildtype (WT) protein (Homo sapiens, UniProt P04626); experiment: HER2 signaling (pHER2 Tyr1248/total HER2 MSD) in BT474 cells; assay type: cell-based; settings: 1.5 hr compound, 1% FBS
T2 construct: BT474 and N87 cell lines which endogenously overexpress the HER2 wildtype (WT) protein; endogenous in cells; host or cells: BT474, N87
Outline: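 BT474, N87 (HER2 WT) and NCI-H1781 (HER2 G776delinsVC) cells were treated for 1.5 h at 37° C in 1% FBS medium with compound at 0.0005–1.1 μM. pHER2 Tyr1248 was measured by MSD on whole-cell lysates and normalized to total HER2 as % DMSO. EC50 came from a variable-slope sigmoidal fit.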

T1 sequence (P04626 23-1255): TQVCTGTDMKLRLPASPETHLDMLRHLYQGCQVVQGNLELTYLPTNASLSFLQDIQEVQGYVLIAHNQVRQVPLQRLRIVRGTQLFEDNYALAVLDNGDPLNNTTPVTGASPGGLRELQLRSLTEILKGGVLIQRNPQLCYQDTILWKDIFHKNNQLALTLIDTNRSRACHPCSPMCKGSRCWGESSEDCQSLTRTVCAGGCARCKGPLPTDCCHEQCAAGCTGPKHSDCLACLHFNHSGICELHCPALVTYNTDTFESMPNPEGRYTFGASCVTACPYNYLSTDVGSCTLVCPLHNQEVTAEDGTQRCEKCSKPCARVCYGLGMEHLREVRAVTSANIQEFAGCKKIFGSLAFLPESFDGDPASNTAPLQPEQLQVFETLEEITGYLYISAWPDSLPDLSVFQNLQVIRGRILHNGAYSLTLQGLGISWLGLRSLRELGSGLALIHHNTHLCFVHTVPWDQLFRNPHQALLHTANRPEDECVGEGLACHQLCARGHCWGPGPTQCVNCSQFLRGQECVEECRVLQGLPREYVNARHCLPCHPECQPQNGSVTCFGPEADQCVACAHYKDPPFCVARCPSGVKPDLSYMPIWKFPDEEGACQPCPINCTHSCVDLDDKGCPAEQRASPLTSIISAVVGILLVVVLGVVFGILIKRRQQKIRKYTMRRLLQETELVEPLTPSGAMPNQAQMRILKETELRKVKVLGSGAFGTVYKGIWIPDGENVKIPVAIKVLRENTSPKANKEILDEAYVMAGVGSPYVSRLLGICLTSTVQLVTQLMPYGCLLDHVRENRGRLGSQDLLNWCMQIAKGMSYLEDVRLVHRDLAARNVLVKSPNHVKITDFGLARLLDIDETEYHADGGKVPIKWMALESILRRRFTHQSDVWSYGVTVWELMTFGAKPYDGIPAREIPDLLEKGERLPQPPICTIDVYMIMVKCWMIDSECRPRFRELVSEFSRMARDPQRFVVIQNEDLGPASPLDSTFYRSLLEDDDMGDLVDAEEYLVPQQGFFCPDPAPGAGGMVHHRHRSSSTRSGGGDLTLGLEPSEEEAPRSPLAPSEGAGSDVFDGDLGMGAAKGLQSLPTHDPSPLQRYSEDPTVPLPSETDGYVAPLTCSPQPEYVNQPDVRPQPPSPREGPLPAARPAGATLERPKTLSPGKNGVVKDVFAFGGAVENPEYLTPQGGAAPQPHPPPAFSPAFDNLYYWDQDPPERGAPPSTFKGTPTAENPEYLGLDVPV
T2 sequence (P04626 23-1255): as above

Cc1nc2cc(Oc3ccc(Nc4ncnc5sc6c(c45)CCN(C(=O)/C=C/CN(C)C)C6)cc3C)ccn2n1 [Compound 127, (E)-4-(dimethylamino)-1-(4-((3-methyl-4-((2-methyl-[1,2,4]triazolo[1,5-a]pyridin-7-yl)oxy)phenyl)amino)-5,6-dihydropyrido[4′,3′:4,5]thieno[2,3-d]pyrimidin-7(8H)-yl)but-2-en-1-one]
IC50 (HER2 WT): 100 to 1000 nM | EC50 [1]: < 100 nM

COc1ccc(Oc2ccc(Nc3ncnc4sc5c(c34)CN(C(=O)/C=C/CN(C)C)C5)cc2C)cn1 [Compound 128, (E)-4-(dimethylamino)-1-(4-((4-((6-methoxypyridin-3-yl)oxy)-3-methylphenyl)amino)-5,7-dihydro-6H-pyrrolo[3′,4′:4,5]thieno[2,3-d]pyrimidin-6-yl)but-2-en-1-one]
IC50 (HER2 WT): 100 to 1000 nM | EC50 [1]: < 100 nM

Cc1ccc(Oc2ccc(Nc3ncnc4sc5c(c34)CN(C(=O)/C=C/CN(C)C)C5)cc2Cl)cn1 [Compound 129, (E)-1-(4-((3-Chloro-4-((6-methylpyridin-3-yl)oxy)phenyl)amino)-5H-pyrrolo[3′,4′:4,5]thieno[2,3-d]pyrimidin-6(7H)-yl)-4-(dimethylamino)but-2-en-1-one]
IC50 (HER2 WT): < 100 nM | EC50 [1]: < 100 nM

Cc1cc(Nc2ncnc3sc4c(c23)CN(C(=O)/C=C/CN(C)C)C4)ccc1Oc1ccn2ncnc2c1 [Compound 130, (E)-1-(4-((4-([1,2,4]Triazolo[1,5-a]pyridin-7-yloxy)-3-methylphenyl)amino)-5H-pyrrolo[3′,4′:4,5]thieno[2,3-d]pyrimidin-6(7H)-yl)-4-(dimethylamino)but-2-en-1-one]
IC50 (HER2 WT): < 100 nM | EC50 [1]: < 100 nM

CCN(CC)C/C=C/C(=O)N1CCc2c(sc3ncnc(Nc4ccc(Oc5ccc(C)nc5)c(C)c4)c23)C1 [Compound 131]
IC50 (HER2 WT): < 100 nM | EC50 [1]: < 100 nM

Cc1ccc(Oc2ccc(Nc3ncnc4sc5c(c34)CCN(C(=O)/C=C/CN3CC[C@@H](CO)C3)C5)cc2C)cn1 [Compound 132]
IC50 (HER2 WT): < 100 nM | EC50 [1]: < 100 nM

Cc1ccc(Oc2ccc(Nc3ncnc4sc5c(c34)CCN(C(=O)/C=C/CN3CC[C@H](CO)C3)C5)cc2C)cn1 [Compound 133]
IC50 (HER2 WT): < 100 nM | EC50 [1]: < 100 nM

Cc1ccc(Oc2ccc(Nc3ncnc4sc5c(c34)CCN(C(=O)/C=C/CN3CC(CO)(CO)C3)C5)cc2C)cn1 [Compound 134]
IC50 (HER2 WT): < 100 nM | EC50 [1]: 100 to 350 nM

Cc1ccc(Oc2ccc(Nc3ncnc4sc5c(c34)CCN(C(=O)/C=C/CN3CCC(CO)(CO)CC3)C5)cc2C)cn1 [Compound 135]
IC50 (HER2 WT): < 100 nM | EC50 [1]: < 100 nM

Cc1ccc(Oc2ccc(Nc3ncnc4sc5c(c34)CCN(C(=O)/C=C/CN3CCO[C@H](CO)C3)C5)cc2C)cn1 [Compound 136]
IC50 (HER2 WT): < 100 nM | EC50 [1]: < 100 nM

CCN(CC)C/C=C/C(=O)N1CCc2c(sc3ncnc(Nc4ccc(Oc5ccc(OC)nc5)c(C)c4)c23)C1 [Compound 137]
IC50 (HER2 WT): < 100 nM | EC50 [1]: < 100 nM

Cc1cc(Nc2ncnc3sc4c(c23)CCN(C(=O)/C=C/CN(C)C)C4)ccc1Oc1ccn2ncnc2c1 [Compound 138, (E)-1-(4-((4-([1,2,4]triazolo[1,5-a]pyridin-7-yloxy)-3-methylphenyl)amino)-5,8-dihydropyrido[4′,3′:4,5]thieno[2,3-d]pyrimidin-7(6H)-yl)-4-(dimethylamino)but-2-en-1-one]
IC50 (HER2 WT): < 100 nM | EC50 [1]: < 100 nM

C#CCOCCN(C)C/C=C/C(=O)N1CCc2c(sc3ncnc(Nc4ccc(Oc5ccc(C)nc5)c(C)c4)c23)C1 [Compound 139]
IC50 (HER2 WT): < 100 nM | EC50 [1]: < 100 nM

COc1ccc(Oc2ccc(Nc3ncnc4sc5c(c34)CCN(C(=O)/C=C/CN3CC[C@H](CO)C3)C5)cc2C)cn1 [Compound 140]
IC50 (HER2 WT): < 100 nM | EC50 [1]: < 100 nM

Cc1ccc(Oc2ccc(Nc3ncnc4sc5c(c34)C(C)N(C(=O)/C=C/CN(C)C)C5)cc2C)cn1 (stereo not shown) [Compound 141, (E)-4-(dimethylamino)-1-(5-methyl-4-((3-methyl-4-((6-methylpyridin-3-yl)oxy)phenyl)amino)-5,7-dihydro-6H-pyrrolo[3′,4′:4,5]thieno[2,3-d]pyrimidin-6-yl)but-2-en-1-one]
IC50 (HER2 WT): < 100 nM | EC50 [1]: < 100 nM

C=CC(=O)N1Cc2sc3ncnc(Nc4ccc(Oc5ccc(C)nc5)c(C)c4)c3c2C(C)C1 (stereo not shown) [Compound 142, 1-(5-methyl-4-((3-methyl-4-((6-methylpyridin-3-yl)oxy)phenyl)amino)-5,6-dihydropyrido[4′,3′:4,5]thieno[2,3-d]pyrimidin-7(8H)-yl)prop-2-en-1-one]
IC50 (HER2 WT): < 100 nM | EC50 [1]: < 100 nM

COc1ccc(Oc2ccc(Nc3ncnc4sc5c(c34)CCN(C(=O)/C=C/CN3CC[C@@H](CO)C3)C5)cc2C)cn1 [Compound 143]
IC50 (HER2 WT): < 100 nM | EC50 [1]: < 100 nM

Cc1ccc(Oc2ccc(Nc3ncnc4sc5c(c34)CCN(C(=O)/C=C/CN3CCO[C@@H](CO)C3)C5)cc2C)cn1 [Compound 144]
IC50 (HER2 WT): < 100 nM | EC50 [1]: < 100 nM

Cc1ccc(Oc2ccc(Nc3ncnc4sc5c(c34)CCN(C(=O)/C=C/CN3CCCC(F)(CO)C3)C5)cc2C)cn1 (stereo not shown) [Compound 150]
IC50 (HER2 WT): < 100 nM | EC50 [1]: < 100 nM

Cc1ccc(Oc2ccc(Nc3ncnc4sc5c(c34)CCN(C(=O)/C=C/CN3CC(F)(CO)C3)C5)cc2C)cn1 [Compound 151]
IC50 (HER2 WT): < 100 nM | EC50 [1]: < 100 nM

COc1ccc(Oc2ccc(Nc3ncnc4sc5c(c34)C(C)CN(C(=O)/C=C/CN(C)C)C5)cc2C)cn1 (stereo not shown) [Compound 152, (E)-4-(dimethylamino)-1-(4-((4-((6-methoxypyridin-3-yl)oxy)-3-methylphenyl)amino)-5-methyl-5,8-dihydropyrido[4′,3′:4,5]thieno[2,3-d]pyrimidin-7(6H)-yl)but-2-en-1-one]
IC50 (HER2 WT): < 100 nM | EC50 [1]: < 100 nM

Cc1ccc(Oc2ccc(Nc3ncnc4sc5c(c34)CN(C(=O)/C=C/CN(C)C)C5C)cc2C)cn1 (stereo not shown) [Compound 153, (E)-4-(dimethylamino)-1-(7-methyl-4-((3-methyl-4-((6-methylpyridin-3-yl)oxy)phenyl)amino)-5,7-dihydro-6H-pyrrolo[3′,4′:4,5]thieno[2,3-d]pyrimidin-6-yl)but-2-en-1-one]
IC50 (HER2 WT): 100 to 1000 nM | EC50 [1]: < 100 nM

Cc1ccc(Oc2ccc(Nc3ncnc4sc5c(c34)CCN(C(=O)/C=C/CN3CCC[C@@H](CO)C3)C5)cc2C)cn1 [Compound 154]
IC50 (HER2 WT): < 100 nM | EC50 [1]: < 100 nM

Cc1ccc(Oc2ccc(Nc3ncnc4sc5c(c34)CCN(C(=O)/C=C/CN3CCC[C@H](CO)C3)C5)cc2C)cn1 [Compound 155]
IC50 (HER2 WT): < 100 nM | EC50 [1]: < 100 nM

Cc1cc(Nc2ncnc3sc4c(c23)CCN(C(=O)/C=C/CN(C)C)C4)ccc1Oc1ccc(N(C)C)nc1 [Compound 158, (E)-4-(dimethylamino)-1-(4-((4-((6-(dimethylamino)pyridin-3-yl)oxy)-3-methylphenyl)amino)-5,8-dihydropyrido[4′,3′:4,5]thieno[2,3-d]pyrimidin-7(6H)-yl)but-2-en-1-one]
IC50 (HER2 WT): < 100 nM | EC50 [1]: < 100 nM

COc1ccc(Oc2ccc(Nc3ncnc4sc5c(c34)CCN(C(=O)/C=C/CN(C)C(C)(C)C)C5)cc2C)cn1 [Compound 163]
IC50 (HER2 WT): < 100 nM | EC50 [1]: < 100 nM

COc1ccc(Oc2ccc(Nc3ncnc4sc5c(c34)CCN(C(=O)/C=C/CN3CCOCC3)C5)cc2C)cn1 [Compound 164]
IC50 (HER2 WT): 100 to 1000 nM | EC50 [1]: < 100 nM

Cc1ccc(Oc2ccc(Nc3ncnc4sc5c(c34)CCN(C(=O)/C=C/CN(C)C)CC5)cc2Cl)cn1 [Compound 167, (E)-1-(4-((3-Chloro-4-((6-methylpyridin-3-yl)oxy)phenyl)amino)-8,9-dihydro-5H-pyrimido[5′,4′:4,5]thieno[2,3-d]azepin-7(6H)-yl)-4-(dimethylamino)but-2-en-1-one]
IC50 (HER2 WT): 100 to 1000 nM | EC50 [1]: < 100 nM

Cc1cc(Nc2ncnc3sc4c(c23)CCN(C(=O)/C=C/CN(C)C)CC4)ccc1Oc1ccn2ncnc2c1 [Compound 168]
IC50 (HER2 WT): < 100 nM | EC50 [1]: < 100 nM

Cc1ccc(Oc2ccc(Nc3ncnc4sc5c(c34)C(C)CN(C(=O)/C=C/CN(C)C)C5)cc2Cl)cn1 (stereo not shown) [Compound 171, (E)-1-(4-((3-Chloro-4-((6-methylpyridin-3-yl)oxy)phenyl)amino)-5-methyl-5,6-dihydropyrido[4′,3′:4,5]thieno[2,3-d]pyrimidin-7(8H)-yl)-4-(dimethylamino)but-2-en-1-one]
IC50 (HER2 WT): < 100 nM | EC50 [1]: < 100 nM

Cc1cc(Nc2ncnc3sc4c(c23)CCN(C(=O)/C=C/CN(C)C)CC4)ccc1Oc1ccn2ccnc2c1 [Compound 172, (E)-4-(Dimethylamino)-1-(4-((4-(imidazo[1,2-a]pyridin-7-yloxy)-3-methylphenyl)amino)-8,9-dihydro-5H-pyrimido[5′,4′:4,5]thieno[2,3-d]azepin-7(6H)-yl)but-2-en-1-one]
IC50 (HER2 WT): < 100 nM | EC50 [1]: < 100 nM

COc1ccc(Oc2ccc(Nc3ncnc4sc5c(c34)CCN(C(=O)/C=C/CN(C)C)CC5)cc2C)cn1 [Compound 173, (E)-4-(Dimethylamino)-1-(4-((4-((6-methoxypyridin-3-yl)oxy)-3-methylphenyl)amino)-8,9-dihydro-5H-pyrimido[5′,4′:4,5]thieno[2,3-d]azepin-7(6H)-yl)but-2-en-1-one]
IC50 (HER2 WT): 100 to 1000 nM | EC50 [1]: < 100 nM
